Test results taken from paper PMC5131364, “Pharmacologic modulation of RORγt translates to efficacy in preclinical and translational models of psoriasis and inflammatory arthritis” (Scientific Reports, 2016).

Experiments:
[1] = test system: IL-23-induced psoriasis-like ear skin inflammation in C57BL/6N mice; assay: IL-23-induced skin inflammation in mice; type: in vivo, mouse; conditions: for reduction of IL-17A-producing total CD3+ T cells / reduction of IL-17A-producing γδ+ T cells: 30 mg/kg BID oral
[2] = test system: CD4+ T cells under Th1 conditions; assay: Mouse CD4+ T cell in vitro Th1 differentiation; type: cell-based; conditions: titrated compound, ELISA
Procedure: Mouse CD4+ T cell in vitro Th1 differentiation
Total CD4+ T cells were isolated from splenocytes of C57/BL6 mice (Chareles River Labrotory) using a CD4+ T cell isolation kit (Miltenyl Biotec, Auburn, CA), following the manufacturer’s instructions. Cells were resuspended in culture medium (described in Method section of Th17 differentiation) and were added to 96‐well plates at 2x10^5 per well. Titrated JNJ‐54271074 was added to each well at final DMSO concentration of 0.2%. Cells were incubated for 1 hour, after which Th1 cell differentiation medium was added with final concentrations of 1 µg/ml anti‐CD3, 5 µg/mL anti‐CD28 (BD Pharmingen, San Diego, CA), 10 µg/ml anti‐IL4, 10 ng/mL IL‐12, (R&D Systems, Minneapolis, MN). Cells were cultured at 37 °C and 5% CO2 for 3 days. Supernatants were collected and the accumulated cytokines in culture were measured by ELISA kits (R&D Systems, Minneapolis, MN) following manufacturers' instructions.
IL‐23 induced IL‐17A and IL‐22 production in mouse splenocytes splenocytes were isolated from C57/BL6 mice and resuspended in medium and cultured in 96‐well plates at […] per 100 µL per well. […] Supernatants were collected and the accumulated cytokines in culture were measured by ELISA according to the manufacturer’s instructions (IL‐17A kit from R&D systems, and IL‐22 from Biolegend San Diego). […]

[3] = test system: iNKT cells from human PBMCs; assay: Human NKT cell in vitro activation; type: cell-based; conditions: IL-1β/IL-23, 6 days, 1 μM
mouse iNKT cells = assay: Mouse NKT cell in vitro activation; type: cell-based; conditions: IL-1β/IL-23 plus anti-IFNγ, 4 days, 1 μM
Description: The following antibodies (anti-mouse or anti-human) were purchased from BD Biosciences (San Diego, CA) or eBioscience (San Diego, CA): anti-CD3-FITC (mouse 17A2 and human SK7), anti-CD4-allophycocyanin (APC), anti-CD4-PerCp, anti-CD4-FITC, anti-CD4-PE (mouse GK1.5 and human SK3), anti-CD44-PerCp (mouse IM7), anti-γδ TCR-FITC, anti-γδ TCR-PE (mouse GL3 and human B1), anti-CD62L-FITC (mouse MEL-14 and human SK11), anti-CD45RO-APC (human UCHL1), anti-CCR6-PE (human 11A9), anti-CD45-PerCp (mouse 30-F11). […] Cells were stained with fluorescence-labeled antibodies for surface marker, then fixed/permeabilized (eBioscience) and stained with antibodies for intracellular cytokines. […] The data were acquired on a FACS Calibur (BD Bioscience) and analyzed using FlowJo software (Tree Star, San Carlos, CA).
Single cell suspension was generated from mouse mesenteric lymph-nodes. […] NKT cells were identified among total live cells using anti-CD3 and mouse conjugated CD1d-tetramer pre-loaded with alpha-GalCer, and cytokine-producing NKT cells were analyzed through intracellular staining. […]

SMILES: COc1nc2ccc([C@@](O)(c3ccc(C)nc3C)c3cnnn3C)cc2c(Cl)c1Cc1ccc(C(F)(F)F)cc1 [JNJ-54271074]
- skin inflammation (total skin histology scores, abscesses, acanthosis) ([1]; 3, 10, 30 and 60 mg/kg BID oral, 7 days, dose-dependent): decreased skin inflammation
- ear mRNA expression of IL-17A, IL-22 and TNFα ([1]; 30 and 60 mg/kg, did not reach statistical significance): suppressed
- reduction of IL-17A-producing total CD3+ T cells ([1]; DLNs): 71%
- reduction of IL-17A-producing γδ+ T cells ([1]; DLNs): 43%
- FOXP3+ CD4+ T cells populations, vehicle vs compound treated groups ([1]; ear skin and DLNs, 30 mg/kg BID): very similar
- reduction of IL-17A-producing total CD3+ T cells ([1]; ear skin): 40%
- reduction of IL-17A-producing γδ+ T cells ([1]; ear skin): 60%
- ear mRNA expression of IL-17F, IFNγ and IL-6 ([1]; oral BID, 7 days): significantly inhibited
- IFNγ production under Th1 conditions [2]: minimal effects
- IL-17A production by iNKT cells from human PBMCs [3]: suppressed
- IL-17A production by mouse iNKT cells (mouse iNKT cells): suppressed
